# Measured values published in ChEMBL document CHEMBL1142749, “P2-P3 conformationally constrained ketoamide-based inhibitors of cathepsin K” (Bioorg Med Chem Lett, 2005).
# Assays:
# [1] = The equilibrium solubility exhibited in a fasted state-simulated intestinal fluid at pH 6.8; assay type: ADME; settings: human
# [2] = molecular target: Procathepsin L (Homo sapiens, UniProt P07711); test: Inhibition of 5 µM Cbz-Phe-Arg-AMC bindign to human cathepsin L activity in fluorescence assay with 100 mM NaOAc
# [3] = molecular target: T1, Cathepsin L2 (Homo sapiens, UniProt O60911); test: Inhibition of 2 µM Cbz-Phe-Arg-AMC binding to human cathepsin V activity in fluorescence assay with 100 mM NaOAc
# T1 sequence (O60911 whole entry): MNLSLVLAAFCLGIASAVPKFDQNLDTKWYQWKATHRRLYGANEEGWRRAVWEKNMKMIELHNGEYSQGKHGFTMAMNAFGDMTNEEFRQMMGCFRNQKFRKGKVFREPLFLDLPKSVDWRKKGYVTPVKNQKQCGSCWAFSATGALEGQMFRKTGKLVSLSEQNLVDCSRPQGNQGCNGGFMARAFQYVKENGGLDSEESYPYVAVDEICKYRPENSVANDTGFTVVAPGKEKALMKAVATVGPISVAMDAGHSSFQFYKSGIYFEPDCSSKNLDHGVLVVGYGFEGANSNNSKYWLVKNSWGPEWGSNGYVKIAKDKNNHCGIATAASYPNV
# [4] = molecular target: Cathepsin B (Homo sapiens, UniProt P07858); test: Inhibition of 10 µM Cbz-Phe-Arg-AMC binding to human cathepsin B activity in fluorescence assay with 100 mM NaOAc
# [5] = molecular target: T2, Cathepsin K (Homo sapiens, UniProt P43235); test: Inhibition of 10 µM Cbz-Phe-Arg-AMC binding to human cathepsin K in fluorescence assay with 100 mM NaOAc
# T2 sequence (P43235 whole entry): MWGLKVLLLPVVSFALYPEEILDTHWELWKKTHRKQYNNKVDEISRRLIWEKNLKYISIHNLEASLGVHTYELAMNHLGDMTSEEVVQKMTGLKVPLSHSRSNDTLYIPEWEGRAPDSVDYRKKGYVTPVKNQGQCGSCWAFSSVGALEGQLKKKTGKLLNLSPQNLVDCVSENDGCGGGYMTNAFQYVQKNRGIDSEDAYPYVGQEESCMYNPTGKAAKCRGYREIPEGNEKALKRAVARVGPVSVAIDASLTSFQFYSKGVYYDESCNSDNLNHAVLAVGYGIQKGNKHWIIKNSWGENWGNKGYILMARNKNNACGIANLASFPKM
# [6] = molecular target: Cathepsin S (Homo sapiens, UniProt P25774); test: Inhibition of 10 µM Cbz-Val-Val-Arg-AMC binding to human cathepsin S in fluorescence assay with 100 mM NaOAc
# [7] = Steady-state volume of distribution of compound was determined after i.v. administration; assay type: ADME, organism-based; settings: rat, in vivo, iv; for Vd: read-out: VSS
# [8] = Terminal half-life dosed as a solution in male Han Wistar rat administered i.v.; assay type: ADME, organism-based; settings: in vivo, iv; for half-life: male, Han Wistar
# [9] = Oral bioavailability (i.v. administration); assay type: ADME, organism-based; settings: rat, in vivo
# [10] = The total clearance after i.v. administration; assay type: ADME, organism-based; settings: rat, in vivo, iv
# Sequence of Cathepsin S (P25774 whole entry): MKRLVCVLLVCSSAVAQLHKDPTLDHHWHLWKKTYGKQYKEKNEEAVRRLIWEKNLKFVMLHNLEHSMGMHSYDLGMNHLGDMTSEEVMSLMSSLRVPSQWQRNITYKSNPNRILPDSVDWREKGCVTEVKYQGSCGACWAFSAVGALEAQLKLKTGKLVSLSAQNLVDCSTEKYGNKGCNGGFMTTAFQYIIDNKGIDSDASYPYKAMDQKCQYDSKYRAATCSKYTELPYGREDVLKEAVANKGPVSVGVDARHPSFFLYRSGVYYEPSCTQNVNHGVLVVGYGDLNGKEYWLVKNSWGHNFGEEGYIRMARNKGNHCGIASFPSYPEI
# Sequence of Procathepsin L (P07711 whole entry): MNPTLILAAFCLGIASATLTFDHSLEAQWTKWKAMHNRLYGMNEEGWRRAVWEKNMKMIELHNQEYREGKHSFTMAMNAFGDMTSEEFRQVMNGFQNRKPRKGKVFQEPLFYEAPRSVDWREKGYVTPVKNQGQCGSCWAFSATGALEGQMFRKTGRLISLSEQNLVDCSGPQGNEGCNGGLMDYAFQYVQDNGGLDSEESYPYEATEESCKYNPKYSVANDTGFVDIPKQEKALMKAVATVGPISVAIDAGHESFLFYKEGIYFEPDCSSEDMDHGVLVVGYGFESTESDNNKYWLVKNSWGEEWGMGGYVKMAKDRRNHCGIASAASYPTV
Structure (SMILES),solubility thermodynamic ([1]; read-out: FS-SIF),IC50 [2],IC50 [3],IC50 [4],IC50 [5],IC50 [6],Vd [7],half-life [8],bioavailability [9],clearance [10],VSS [7],T1/2 [8],CL [10],solubility thermodynamic [1]
CCCC[C@H](NC(=O)OC(Cc1nnc(-c2ccc(F)cc2)o1)C(C)(C)C)C(=O)C(=O)N[C@H]1CCCNC1=O (stereo partly specified),0.62 mg/mL,15 µM,1.3 µM,6.2 µM,0.00065 µM,0.81 µM,1.4 L/kg,2.33 h,17%,2.1 L/h/kg,,,,
CCCC[C@H](NC(=O)O[C@H](Cc1nnc(-c2ccccc2)o1)C(C)(C)C)C(=O)C(=O)N[C@H](C)c1ccccc1,,10 µM,1.6 µM,12 µM,,0.75 µM,,,,,,,,
CCCC[C@H](NC(=O)O[C@H](Cc1nnc(-c2ccc(F)cc2)o1)C(C)(C)C)C(=O)C(=O)N[C@H](C)c1ccccc1,,33 µM,34 µM,9.8 µM,,0.53 µM,,,,,,,,
CCCC[C@H](NC(=O)O[C@H](Cc1nnc(-c2ccc(F)cc2)o1)C(C)(C)C)C(=O)C(=O)NCc1cccnc1,0.49 mg/mL,130 µM,14 µM,18 µM,,2.7 µM,1.4 L/kg,3.83 h,46%,0.66 L/h/kg,,,,
CCCC[C@H](NC(=O)O[C@H](Cc1nnc(-c2ccccc2)o1)C(C)C)C(=O)C(=O)N[C@H](C)c1ccccc1,,17 µM,5.6 µM,31 µM,0.00083 µM,3.7 µM,,,,,,,,
CCCC[C@H](NC(=O)O[C@H](CN1CCN(c2ccc(C(F)(F)F)cc2)C1=O)C(C)(C)C)C(=O)C(=O)Nc1ccn[nH]1,0.043 mg/mL,37 µM,1.7 µM,60 µM,,0.54 µM,5 L/kg,5.67 h,27%,3.3 L/h/kg,,,,
CCCC[C@H](NC(=O)O[C@H](Cn1ccc(-c2ccc(C(F)(F)F)cc2)n1)C(C)(C)C)C(=O)C(=O)NCc1ccno1,,1000 µM,36 µM,870 µM,0.0058 µM,19 µM,1.7 L/kg,6.67 h,40%,0.192 L/h/kg,,,,0.18 mg/mL
CCCC[C@H](NC(=O)O[C@H](Cc1nnc(-c2ccccc2)o1)C(C)(C)CC)C(=O)C(=O)N[C@H](C)c1ccccc1,,17 µM,2.8 µM,56 µM,0.0015 µM,0.72 µM,,,,,,,,
CCCC[C@H](NC(=O)O[C@H](Cn1ccc(-c2ccc(C(F)(F)F)cc2)n1)C(C)(C)C)C(=O)C(=O)Nc1ccccn1,0.38 mg/mL,240 µM,4.5 µM,107 µM,0.0081 µM,3.7 µM,1.8 L/kg,3.5 h,34%,2.46 L/h/kg,,,,
CCCC[C@H](NC(=O)O[C@H](Cn1cnc(-c2ccc(C(F)(F)F)cc2)c1)C(C)(C)C)C(=O)C(=O)Nc1nccs1,0.048 mg/mL,1000 µM,36 µM,870 µM,,19 µM,1.8 L/kg,4.67 h,43%,0.9 L/h/kg,,,,

# More lines, now with the values ahead:
solubility thermodynamic ([1]; read-out: FS-SIF),IC50 [2],IC50 [3],IC50 [4],IC50 [5],IC50 [6],Vd [7],half-life [8],bioavailability [9],clearance [10],VSS [7],T1/2 [8],CL [10],solubility thermodynamic [1],Structure (SMILES)
0.097 mg/mL,36 µM,0.43 µM,10 µM,0.032 µM,0.078 µM,2.1 L/kg,5.67 h,45%,0.546 L/h/kg,,,,,CCCC[C@H](NC(=O)O[C@H](Cn1cc(-c2ccc(C(F)(F)F)cc2)cn1)C(C)(C)C)C(=O)C(=O)Nc1ccn[nH]1
0.11 mg/mL,8.7 µM,0.17 µM,20 µM,0.072 µM,0.21 µM,,,9.6%,,0.32 L/kg,1.52 h,0.0066 L/h/kg,,CCCC[C@H](NC(=O)O[C@H](Cn1ccc(-c2ccc(C(F)(F)F)cc2)n1)C(C)(C)C)C(=O)C(=O)Nc1ccn[nH]1
,190 µM,5 µM,32 µM,,1.6 µM,,,,,,,,,CCCC[C@H](NC(=O)O[C@H](Cc1nnc(-c2ccc(C(F)(F)F)cc2)o1)C(C)(C)C)C(=O)C(=O)N[C@H](C)c1ccccc1
0.13 mg/mL,10 µM,0.13 µM,27 µM,,0.16 µM,2.4 L/kg,7.67 h,55%,0.9 L/h/kg,,,,,CCCC[C@H](NC(=O)O[C@H](Cn1cnc(-c2ccc(C(F)(F)F)cc2)c1)C(C)(C)C)C(=O)C(=O)Nc1ccn[nH]1
0.058 mg/mL,3800 µM,230 µM,3500 µM,0.0049 µM,110 µM,3.6 L/kg,2.5 h,88%,1.98 L/h/kg,,,,,CCCC[C@H](NC(=O)O[C@H](Cc1nnc(-c2ccc(F)cc2)o1)C(C)(C)C)C(=O)C(=O)Nc1ccn[nH]1
0.17 mg/mL,160 µM,7.1 µM,5.2 µM,,1.2 µM,3.1 L/kg,6.83 h,79%,0.66 L/h/kg,,,,,CCCC[C@H](NC(=O)O[C@H](Cc1nnc(-c2ccc(C(F)(F)F)cc2)o1)C(C)(C)C)C(=O)C(=O)NN1CCOC1=O
0.061 mg/mL,69 µM,1.2 µM,45 µM,,0.52 µM,1.9 L/kg,8.83 h,50%,0.66 L/h/kg,,,,,CCCC[C@H](NC(=O)O[C@H](Cc1nnc(-c2ccc(C(F)(F)F)cc2)o1)C(C)(C)C)C(=O)C(=O)Nc1ccn[nH]1
